Data reported in patent US8518952B2, “6 substituted 2-heterocyclylamino pyrazine compounds as CHK-1 inhibitors” (Pfizer Inc., priority 2008, dated 2013).
pKi: −log10 of the molar value. Structures can show the parent of a compound that is named as a salt.

Biological target: T1, CHK1 (kinase domain) (Homo sapiens, UniProt O14757)
T1 construct: a solution containing 1 nM of CHK1 (kinase domain)
T1 sequence (O14757 9-265 limits assumed): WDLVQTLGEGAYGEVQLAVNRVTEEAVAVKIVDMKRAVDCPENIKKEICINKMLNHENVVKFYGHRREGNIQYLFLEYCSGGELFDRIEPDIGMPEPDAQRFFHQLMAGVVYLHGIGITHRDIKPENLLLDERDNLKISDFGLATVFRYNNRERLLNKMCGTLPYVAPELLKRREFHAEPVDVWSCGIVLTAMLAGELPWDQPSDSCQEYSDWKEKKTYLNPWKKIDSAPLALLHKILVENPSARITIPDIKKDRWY
Experiment: CHK1 Ki determination, spectrophotometric coupled (pyruvate kinase/lactate dehydrogenase) assay
Format: biochemical
Settings: CHK-1 kinase domain; 150 uM ATP, 125 uM Syntide 2
Description: After 15 min pre-incubation, the enzymatic reaction was initiated by the simultaneous addition of Syntide 2 peptide (125 uM, final concentration) and ATP (150 uM, final concentration). The kinase-catalyzed production of ADP from ATP that accompanied phosphoryl transfer to the substrate Syntide 2 was coupled to the oxidation of NADH through the activities of pyruvate kinase and lactate dehydrogenase. NADH conversion to NAD^+ was monitored by the decrease in absorbance at 340 nm (ε=6.22 cm^−1 mM^−1) using a microplate reader from Molecular Devices Spectormax Plus (Sunnyvale, Calif.) or BMG LABTECH Inc (Offenburg, Germany).
The inhibition of CHK1 was analyzed by fitting the data to the following equation to determine Kiapp:
[formula] where [E]o and [I]o are the active enzyme and inhibitor concentration, respectively; Ki is the inhibition binding constant and Km the Michaelis-Menten constant for ATP; Vi and Vo are the rates of substrate oxidation in the presence of and in the absence of inhibitor, respectively. EC50 Determination (Cellular Assay)
Under the “Ki” column, data entries in the format of “%” are percent inhibition data where no Ki data is available. Data entry under the “EC50” column with an * are data obtained using Mia Paca-2 cells rather than HeLa cells. Data is not available where noted as n/a.

Structure (SMILES) | pKi
F[C@@H]1CNC[C@@H]1Nc1cncc(-c2cnn3ccccc23)n1 (relative stereo) [Example 45, Cis N-[4-fluoropyrrolidin-3-yl]-6-pyrazolo [1,5-a]pyridin-3-ylpyrazin-2-amine] | 6.23
c1cnn2c(-c3cncc(NC4CCCCNC4)n3)cnc2c1 (stereo not shown) [Example 80, N-(6-imidazo[1,2-b]pyridazin-3-ylpyrazin-2-yl)azepan-3-amine, acetate salt] | 6.00

Other lines, results leading:

pKi | Structure (SMILES)
6.00 | F[C@@H]1CNC[C@@H]1Nc1cncc(-c2cnc3cccnn23)n1 [Example 81, N-[(3S,4R)-4-fluoropyrrolidin-3-yl]-6-imidazo[1,2-b]pyridazin-3-ylpyrazin-2-amine, acetate salt]
6.00 | F[C@@H]1CNC[C@H]1Nc1cncc(-c2cnc3cccnn23)n1 [Example 82, N-[(3R,4R)-4-fluoropyrrolidin-3-yl]-6-imidazo[1,2-b]pyridazin-3-ylpyrazin-2-amine]
6.00 | C[C@H]1CC[C@@H](Nc2cncc(-c3cnc4cccnn34)n2)CN1 [Example 83, 6-imidazo[1,2-b]pyridazin-3-yl-N-[(3R,6S)-6-methylpiperidin-3-yl]pyrazin-2-amine, acetate salt]
6.00 | C[C@@H]1CC[C@@H](Nc2cncc(-c3cnc4cccnn34)n2)CN1 [Example 84, 6-imidazo[1,2-b]pyridazin-3-yl-N-[(3R,6R)-6-methylpiperidin-3-yl]pyrazin-2-amine, acetate salt]
7.43 | C[C@@H]1NCCC[C@H]1Nc1cncc(-c2cnc3ccc(F)cn23)n1 [Example 95, 6-(6-fluoroimidazo[1,2-a]pyridin-3-yl)-N-[(2S,3R)-2-methylpiperidin-3-yl]pyrazin-2-amine]
7.67 | Cc1cn2c(-c3cncc(N[C@@H]4CCCN[C@H]4C)n3)cnc2s1 [Example 133, 6-(2-methylimidazo[2,1-b][1,3]thiazol-5-yl)-N-[(2S,3R)-2-methylpiperidin-3-yl]pyrazin-2-amine]
7.74 | C[C@H]1NCCC[C@H]1Nc1cncc(-c2cnc3ccc(F)cn23)n1 [Example 164, 6-(6-fluoroimidazo[1,2-a]pyridin-3-yl)-N-[(2R,3R)-2-methylpiperidin-3-yl]pyrazin-2-amine]
6.71 | c1ccc2c(c1)ncn2-c1cncc(NC2CCNC2)n1 (stereo not shown) [Example 208, 6-(1H-benzimidazol-1-yl)-N-(pyrrolidin-3-yl)pyrazin-2-amine]
8.55 | COc1ccn2c(-c3cncc(N[C@H]4CNC[C@H]4C4CCCC4)n3)cnc2c1 [Example 210, N-[(3R,4R)-4-cyclopentylpyrrolidin-3-yl]-6-(7-methoxyimidazo[1,2-a]pyridin-3-yl)pyrazin-2-amine]
6.43 | N#Cc1ccc2ncc(-c3cncc(N[C@H]4CNC[C@H]4C4CC4)n3)n2c1 [Example 263, 3-(6-{[(3R,4R)-4-cyclopropylpyrrolidin-3-yl]amino}pyrazin-2-yl)imidazo[1,2-a]pyridine-6-carbonitrile]
6.98 | CCOc1cc2ncn(-c3cncc(N[C@H]4CN[C@H](COC)C4)n3)c2cn1 [Example 297, [6-(6-Ethoxy-imidazo[4,5-c]pyridin-3-yl)-pyrazin-2-yl]-((3R,5S)-5-methoxymethyl-pyrrolidin-3-yl)-amine]
8.28 | CCOc1cc2ncn(-c3cncc(N[C@H]4CNCC[C@@H]4OC)n3)c2cn1 [Example 298, [6-(6-Ethoxy-imidazo[4,5-c]pyridin-3-yl)-pyrazin-2-yl]-((3S,4S)-4-methoxy-piperidin-3-yl)-amine]
8.39 | c1cc2c(-c3cncc(N[C@@H]4CCCNC4)n3)cnn2cn1 [Example 299, (R)-Piperidin-3-yl-(6-pyrazolo[1,5-c]pyrimidin-3-yl-pyrazin-2-yl)-amine]

Same assay, conditions: CHK-1 kinase domain; inhibitor concentration not given

Structure (SMILES) | percent inhibition (where no Ki data is available)
c1ccn2c(-c3cncc(N[C@@H]4CCCNC4)n3)nnc2c1 [Example 8, N-[(3R)-piperidin-3-yl]-6-[1,2,4]triazolo[4,3-a]pyridin-3-ylpyrazin-2-amine] | 16.7%^
Cc1cccc2ncc(-c3cncc(N[C@@H]4CCNC4)n3)n12 [Example 58, 6-(5-Methylimidazo[1,2-a]pyridin-3-yl)-N-[(3R)-pyrrolidin-3-yl]pyrazin-2-amine] | 0%
c1ccc2c(c1)ncn2-c1cncc(N[C@H]2CCCNC2)n1 [Example 63, 6-(1H-benzimidazol-1-yl)-N-[(3S)-piperidin-3-yl]pyrazin-2-amine] | 35.5%^
Cc1ncc(-c2cncc(N[C@@H]3CC[C@@H](C)NC3)n2)n1Cc1ccccc1 [Example 68, 6-(1-benzyl-2-methyl-1H-imidazol-5-yl)-N-[(3R,6R)-6-methylpiperidin-3-yl]pyrazin-2-amine] | 0%
Cc1ncc(-c2cncc(NC3CCCCNC3)n2)n1C (stereo not shown) [Example 69, N-[6-(1,2-dimethyl-1H-imidazol-5-yl)pyrazin-2-yl]azepan-3-amine] | 0.60%^
Cc1ncc(-c2cncc(N[C@@H]3CC[C@H](C)NC3)n2)n1C [Example 70, 6-(1,2-dimethyl-1H-imidazol-5-yl)-N-[(3R,6S)-6-methylpiperidin-3-yl]pyrazin-2-amine] | 0%
Cc1ncc(-c2cncc(N[C@@H]3CC[C@@H](C)NC3)n2)n1C [Example 71, 6-(1,2-dimethyl-1H-imidazol-5-yl)-N-[(3R,6R)-6-methylpiperidin-3-yl]pyrazin-2-amine] | 0%
Cc1ncc(-c2cncc(N[C@@H]3CCCNC3)n2)n1Cc1ccccc1 [Example 72, 6-(1-benzyl-2-methyl-1H-imidazol-5-yl)-N-[(3R)-piperidin-3-yl]pyrazin-2-amine] | 1.4%^
Cc1ncc(-c2cncc(N[C@@H]3CCNC3)n2)n1C [Example 73, 6-(1,2-dimethyl-1H-imidazol-5-yl)-N-[(3R)-pyrrolidin-3-yl]pyrazin-2-amine] | 0%
Cc1ncc(-c2cncc(NC3CCCCNC3)n2)n1Cc1ccccc1 (stereo not shown) [Example 74, N-[6-(1-benzyl-2-methyl-1H-imidazol-5-yl)pyrazin-2-yl]azepan-3-amine] | 5.8%^
Cc1ncc(-c2cncc(N[C@@H]3CCNC3)n2)n1Cc1ccccc1 [Example 75, 6-(1-benzyl-2-methyl-1H-imidazol-5-yl)-N-[(3R)-pyrrolidin-3-yl]pyrazin-2-amine] | 6.7%^
Cc1ncc(-c2cncc(N[C@@H]3CNC[C@@H]3F)n2)n1C [Example 76, 6-(1,2-dimethyl-1H-imidazol-5-yl)-N-[(3R,4S)-4-fluoropyrrolidin-3-yl]pyrazin-2-amine] | 1.6%^
Cc1ncc(-c2cncc(N[C@H]3CNC[C@@H]3F)n2)n1C [Example 77, 6-(1,2-dimethyl-1H-imidazol-5-yl)-N-[(3S,4S)-4-fluoropyrrolidin-3-yl]pyrazin-2-amine] | 0%

Other lines, results leading:

percent inhibition (where no Ki data is available) | Structure (SMILES)
0% | C[C@@H]1NCCC[C@H]1Nc1cncc(-c2cnc3ccccn23)n1 [Example 131, 6-imidazo[1,2-a]pyridin-3-yl-N-[(2S,3R)-2-methylpiperidin-3-yl]pyrazin-2-amine]
2.2%^ | Cc1nc2ccccn2c1-c1cncc(N[C@@H]2CCCNC2)n1 [Example 153, 6-(2-methylimidazo[1,2-a]pyridin-3-yl)-N-[(3R)-piperidin-3-yl]pyrazin-2-amine]
49.1%^ | Cc1cn2c(-c3cncc(N[C@H]4CCCN[C@@H]4C)n3)cnc2s1 [Example 177, 6-(2-methylimidazo[2,1-b][1,3]thiazol-5-yl)-N-[(2R,3S)-2-methylpiperidin-3-yl]pyrazin-2-amine]
98.9%^ | FC[C@@H]1CNC[C@@H]1Nc1cncc(-c2cnc3sccn23)n1 [Example 182, N-[(3R,4R)-4-(fluoromethyl)pyrrolidin-3-yl]-6-(imidazo[2,1-b][1,3]thiazol-5-yl)pyrazin-2-amine]
21% | Cc1cccn2c(-c3cncc(N[C@@H]4CCCNC4)n3)cnc12 [Example 207, 6-(8-methylimidazo[1,2-a]pyridin-3-yl)-N-[(3R)-piperidin-3-yl]pyrazin-2-amine]
17.9%^ | c1cc2ncn(-c3cncc(N[C@@H]4CCNC4)n3)c2cc1OCC1CC1 [Example 220, 6-[6-(cyclopropylmethoxy)-1H-benzimidazol-1-yl]-N-[(3R)-pyrrolidin-3-yl]pyrazin-2-amine]
